In BindingDB's records for doi:10.3109/14756360903179443 (Institute of Chemical Technology, 2010):
Structures can show the parent of a compound that is named as a salt.

How the values were obtained:
Test in all cases: Biological Assay
[1] = target: T1, Dihydrofolate reductase (Mycobacterium avium, UniProt O30463)
T1 sequence (O30463 whole entry): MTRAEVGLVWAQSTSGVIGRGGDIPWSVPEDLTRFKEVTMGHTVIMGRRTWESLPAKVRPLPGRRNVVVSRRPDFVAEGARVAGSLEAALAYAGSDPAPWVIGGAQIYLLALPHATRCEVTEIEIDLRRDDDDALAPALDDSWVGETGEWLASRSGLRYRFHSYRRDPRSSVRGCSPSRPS
Method: (§1) The synthesized compounds were evaluated for their ability to inhibit DHFR from pc, tg, ma, and rl using a continuous spectrophotometric assay measuring oxidation at […] of NADPH at 37°C under conditions of saturating substrate and cofactor as previously described [Broughton et al., Antimicrob. Agents Chemother., 35:1348-55; Chio et al., Antimicrob. Agents Chemother., 37:1914-23].

[2] = target: T2, Dihydrofolate reductase (Rattus norvegicus, UniProt Q920D2)
T2 sequence (Q920D2 whole entry): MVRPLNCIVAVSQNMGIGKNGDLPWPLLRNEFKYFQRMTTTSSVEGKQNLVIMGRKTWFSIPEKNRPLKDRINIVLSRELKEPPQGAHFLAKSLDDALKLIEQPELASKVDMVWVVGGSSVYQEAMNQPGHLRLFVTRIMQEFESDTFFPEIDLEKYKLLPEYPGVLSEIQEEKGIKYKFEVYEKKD
Method: as §1

[3] = target: T3, Dihydrofolate reductase (Pneumocystis carinii, UniProt P16184)
T3 sequence (P16184 whole entry): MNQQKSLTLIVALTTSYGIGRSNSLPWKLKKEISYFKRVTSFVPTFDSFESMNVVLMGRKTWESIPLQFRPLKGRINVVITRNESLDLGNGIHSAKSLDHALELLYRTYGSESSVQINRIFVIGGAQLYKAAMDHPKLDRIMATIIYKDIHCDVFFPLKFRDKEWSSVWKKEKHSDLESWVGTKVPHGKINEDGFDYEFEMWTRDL
Method: as §1

[4] = target: T4, Bifunctional dihydrofolate reductase-thymidylate synthase (Toxoplasma gondii, UniProt Q07422)
T4 sequence (Q07422 whole entry): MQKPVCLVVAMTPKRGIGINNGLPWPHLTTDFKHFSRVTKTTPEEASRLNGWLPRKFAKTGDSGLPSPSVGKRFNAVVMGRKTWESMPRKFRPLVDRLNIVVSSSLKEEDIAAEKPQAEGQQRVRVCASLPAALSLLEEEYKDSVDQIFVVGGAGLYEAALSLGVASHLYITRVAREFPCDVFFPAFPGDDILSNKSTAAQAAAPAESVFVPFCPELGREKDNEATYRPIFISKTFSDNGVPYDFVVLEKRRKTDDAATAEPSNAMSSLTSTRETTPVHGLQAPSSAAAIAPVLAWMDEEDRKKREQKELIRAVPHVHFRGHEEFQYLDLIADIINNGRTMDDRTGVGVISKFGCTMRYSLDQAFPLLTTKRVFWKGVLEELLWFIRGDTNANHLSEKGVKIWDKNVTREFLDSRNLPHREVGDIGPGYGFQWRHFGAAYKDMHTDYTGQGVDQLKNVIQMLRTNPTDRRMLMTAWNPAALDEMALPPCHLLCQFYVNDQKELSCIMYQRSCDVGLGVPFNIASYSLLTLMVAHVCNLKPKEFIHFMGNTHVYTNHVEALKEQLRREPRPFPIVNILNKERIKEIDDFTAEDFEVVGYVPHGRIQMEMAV
Method: as §1

| Compound | IC50 [1] | IC50 [2] | IC50 [3] | IC50 [4] |
| --- | --- | --- | --- | --- |
| CC1(C)N=C(N)N=C(N)N1c1ccc(OCc2ccc(-c3ccccc3)cc2)cc1 [1-(4-(Biphenyl-4-ylmethoxy)phenyl)-6,6-dimethyl-1,6-dihydro-1,3,5-triazine-2,4-diamine hydrochloride (B2-07)] | 10.2 µM | 0.026 µM | 0.403 µM | 0.012 µM |
| COc1cccc(COc2ccc(NC(=N)NC(=N)N)cc2)c1 [N-{4-[(3-Methoxybenzyl)oxy]phenyl}imidodicarbonimidic diamide hydrochloride (B1-06)] | 15.5 µM | 14.7 µM | 15.5 µM | 8.4 µM |
| N=C(N)NC(=N)Nc1ccc(OCCN2C(=O)c3ccccc3C2=O)cc1 [N-{4-[2-(1,3-Dioxo-1,3-dihydro-2H-isoindol-2-yl)ethoxy]phenyl}imidodicarbonimidic diamide hydrochloride (A1-01)] | 51.4 µM | 67.7 µM | 51.4 µM | 40.3 µM |
| CC1(C)N=C(N)N=C(N)N1c1ccc(OCc2ccccc2)cc1 | 14.4 µM | 0.12 µM | 5.4 µM | 0.032 µM |
| NC(N)=N/C(N)=N/c1ccc(OCc2ccc(-c3ccccc3)cc2)cc1 [N-[4-(Biphenyl-4-ylmethoxy)phenyl]imidodicarbonimidic diamide hydrochloride (B1-07)] | 104 µM | 67 µM | 104 µM | 111 µM |
| NC(N)=N/C(N)=N/c1ccc(OCc2cccc(Cl)c2)cc1 [N-{4-[(3-Chlorobenzyl)oxy]phenyl}imidodicarbonimidic diamide hydrochloride (B1-02)] | 63.8 µM | 68.7 µM | 104 µM | 58.5 µM |
| CC1(C)N=C(N)N=C(N)N1c1ccc(OCc2ccccc2Cl)cc1 [1-(4-(2-Chlorobenzyloxy)phenyl)-6,6-dimethyl-1,6-dihydro-1,3,5-triazine-2,4-diamine hydrochloride (B2-03)] | 10.3 µM | 0.073 µM | 2.53 µM | 0.04 µM |
| N=C(N)NC(=N)Nc1ccc(OCc2ccccc2Cl)cc1 [N-{4-[(2-Chlorobenzyl)oxy]phenyl}imidodicarbonimidic diamide hydrochloride (B1-03)] | 152 µM | 20.8 µM | 293 µM | 9.95 µM |
| N=C(N)NC(=N)Nc1ccc(OCc2ccccc2)cc1 [N-[4-(Benzyloxy)phenyl]imidodicarbonimidic diamide hydrochloride (B1-01)] | 132 µM | 132 µM | 132 µM | 132 µM |
| CC1(C)N=C(N)N=C(N)N1c1ccc(OCCCCN2C(=O)c3ccccc3C2=O)cc1 [2-(4-(4-(4,6-Diamino-2,2-dimethyl-1,3,5-triazin-1(2H)-yl)phenoxy)butyl)isoindoline-1,3-dione (A2-03)] | 8.9 µM | 0.033 µM | 2.61 µM | 0.079 µM |
| N=C(N)NC(=N)Nc1ccc(OCc2ccc(Br)cc2)cc1 [N-{4-[(4-Bromobenzyl)oxy]phenyl}imidodicarbonimidic diamide hydrochloride (B1-05)] | 127 µM | 74.9 µM | 164 µM | 21.4 µM |
| COc1ccc(COc2ccc(N3C(N)=NC(N)=NC3(C)C)cc2)cc1 [1-(4-(4-Methoxybenzyloxy)phenyl)-6,6-dimethyl-1,6-dihydro-1,3,5-triazine-2,4-diamine hydrochloride (B2-06)] | 3.38 µM | 0.048 µM | 1.69 µM | 0.019 µM |
| CC1(C)N=C(N)N=C(N)N1c1ccc(OCc2ccc(Br)cc2)cc1 [1-(4-(4-Bromobenzyloxy)phenyl)-6,6-dimethyl-1,6-dihydro-1,3,5-triazine-2,4-diamine hydrochloride (B2-05)] | 7.32 µM | 0.033 µM | 0.829 µM | 0.033 µM |
| CC1(C)N=C(N)N=C(N)N1c1ccc(OCCCN2C(=O)c3ccccc3C2=O)cc1 [2-(3-(4-(4,6-Diamino-2,2-dimethyl-1,3,5-triazin-1(2H)-yl)phenoxy)propyl)isoindoline-1,3-dione hydrochloride (A2-02)] | 35.2 µM | 0.556 µM | 6.49 µM | 0.169 µM |
| N=C(N)NC(=N)Nc1ccc(OCCCN2C(=O)c3ccccc3C2=O)cc1 [N-{4-[3-(1,3-Dioxo-1,3-dihydro-2H-isoindol-2-yl)propoxy]phenyl}imidodicarbonimidic diamide hydrochloride (A1-02)] | 106 µM | 106 µM | 106 µM | 135 µM |
| CC1(C)N=C(N)N=C(N)N1c1ccc(OCCN2C(=O)c3ccccc3C2=O)cc1 [2-(2-(4-(4,6-Diamino-2,2-dimethyl-1,3,5-triazin-1(2H)-yl)phenoxy)ethyl)isoindoline-1,3-dione hydrochloride (A2-01)] | 44.6 µM | 1.16 µM | 15.4 µM | 0.424 µM |
| NC(N)=N/C(N)=N/c1ccc(OCc2ccc(Cl)cc2Cl)cc1 [N-{4-[(2,4-Dichlorobenzyl)oxy]phenyl}imidodicarbonimidic diamide hydrochloride (B1-04)] | 111 µM | 27.9 µM | 123 µM | 111 µM |
| CC1(C)N=C(N)N=C(N)N1c1ccc(OCc2cccc(Cl)c2)cc1 [1-(4-(3-Chlorobenzyloxy)phenyl)-6,6-dimethyl-1,6-dihydro-1,3,5-triazine-2,4-diamine hydrochloride (B2-02)] | 4.08 µM | 0.034 µM | 1.11 µM | 0.02 µM |
| CC1(C)N=C(N)N=C(N)N1c1ccc(OCC(O)CN2C(=O)c3ccccc3C2=O)cc1 (stereo not given) [2-(3-(4-(4,6-Diamino-2,2-dimethyl-1,3,5-triazin-1(2H)-yl)phenoxy)-2-hydroxypropyl)isoindoline-1,3-dione hydrochloride (A2-04)] | 154 µM | 1.94 µM | 34.6 µM | 0.523 µM |
| CC1(C)N=C(N)N=C(N)N1c1ccc(OCc2ccc(Cl)cc2Cl)cc1 [1-(4-(2,4-Dichlorobenzyloxy)phenyl)-6,6-dimethyl-1-,6-dihydro-1,3,5-triazine-2,4-diamine hydrochloride (B2-04)] | 11.2 µM | 0.018 µM | 1.08 µM | 0.029 µM |
